*1 amine or outer side, *2 acyl side, *3 side chain or, on linkers, in order; H or OH if unused. Where a SMILES comes first, the peptide text is derived from it. Bridges are numbered along the chain shown (N, C = ends). The star is where a group is joined. C20 diacid = O=C(O)CCCCCCCCCCCCCCCCCCC(=O)*; C18 diacid = O=C(O)CCCCCCCCCCCCCCCCC(=O)*; γGlu = O=C(O)[C@H](CCC(=O)[*:2])N[*:1]; AEEA = NCCOCCOCC(=O)O

The results in this text go back to US8895504B2, “Amylin derivatives” (priority 2008, dated 2014).

For this experiment, the target named is T1, Amylin 3(a) receptor (human calcitonin receptor (CTa) and RAMP-3) (Homo sapiens, UniProt O60896+P30988).
T1 construct: expressed in transfected cells; host or cells: BHK570 cells, stably transfected with a CRE-luciferase reporter
T1 sequence (O60896 24-148): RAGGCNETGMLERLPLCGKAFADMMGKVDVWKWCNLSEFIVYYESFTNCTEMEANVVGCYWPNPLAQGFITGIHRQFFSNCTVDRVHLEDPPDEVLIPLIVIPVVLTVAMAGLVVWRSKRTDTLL
T1 sequence (P30988 25-474): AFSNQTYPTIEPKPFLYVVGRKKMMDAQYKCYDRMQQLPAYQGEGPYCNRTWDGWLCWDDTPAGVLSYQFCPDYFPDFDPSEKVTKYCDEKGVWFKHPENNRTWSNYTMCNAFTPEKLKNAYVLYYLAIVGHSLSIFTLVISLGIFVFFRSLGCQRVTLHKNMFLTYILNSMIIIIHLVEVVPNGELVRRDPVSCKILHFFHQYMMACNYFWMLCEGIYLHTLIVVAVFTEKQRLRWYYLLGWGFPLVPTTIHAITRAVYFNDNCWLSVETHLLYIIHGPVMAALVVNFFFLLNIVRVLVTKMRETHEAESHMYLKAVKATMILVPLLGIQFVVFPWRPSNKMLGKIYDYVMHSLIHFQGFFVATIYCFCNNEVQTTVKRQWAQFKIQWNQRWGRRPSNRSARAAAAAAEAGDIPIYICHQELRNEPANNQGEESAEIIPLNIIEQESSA
Kind of experiment: Luciferase assay (III), BHK Amylin 3(a)//CRE-luc cells. The experiment is classed as cell-based. The following applies: BHK cells with Amylin 3(a) receptor and CRE luciferase reporter, 4 hours incubation; read-out: Potency Luciferase. The method in brief:
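Read-out is CRE-driven luciferase luminescence, taken 30 min after LucLite addition at room temperature. Compounds were incubated 4 h at 37° C in assay medium (10% FBS, 10 mM Hepes, pH 7,4). The cell line is BHK570 co-transfected with human calcitonin receptor CTa and RAMP-3, seeded overnight before use.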
On the technique in general: A reporter such as luciferase makes a cellular process visible.

For the compound `CC[C@H](C)[C@H](NC(=O)[C@@H]1CCCN1C(=O)CNC(=O)[C@H](Cc1ccccc1)NC(=O)[C@H](CC(N)=O)NC(=O)[C@H](CC(N)=O)NC(=O)[C@H](CO)NC(=O)[C@H](CO)NC(=O)[C@H](Cc1c[nH]cn1)NC(=O)[C@H](CCCNC(=N)N)NC(=O)[C@H](CC(C)C)NC(=O)[C@H](Cc1ccccc1)NC(=O)[C@H](CC(N)=O)NC(=O)[C@H](C)NC(=O)[C@H](CC(C)C)NC(=O)[C@H](CCCNC(=N)N)NC(=O)[C@H](CCC(N)=O)NC(=O)[C@@H](NC(=O)[C@H](C)NC(=O)[C@@H]1CSSC[C@H](NC(=O)[C@H](CCCNC(=N)N)NC(=O)[C@H](Cc2c[nH]cn2)NC(=O)[C@H](Cc2c[nH]cn2)NC(=O)COCCOCCNC(=O)CC[C@H](NC(=O)CCCCCCCCCCCCCCCCCCC(=O)O)C(=O)O)C(=O)N[C@@H](CC(N)=O)C(=O)N[C@@H]([C@@H](C)O)C(=O)N[C@@H](C)C(=O)N[C@@H]([C@@H](C)O)C(=O)N1)[C@@H](C)O)C(=O)N[C@@H](CC(C)C)C(=O)N1CCC[C@H]1C(=O)N1CCC[C@H]1C(=O)N[C@H](C(=O)N[C@@H](CC(N)=O)C(=O)N[C@H](C(=O)NCC(=O)N[C@@H](CO)C(=O)N[C@@H](CC(N)=O)C(=O)N[C@H](C(=O)N[C@@H](Cc1ccc(O)cc1)C(N)=O)[C@@H](C)O)C(C)C)[C@@H](C)O` [Example 57, N-alpha-[2-(2-{2-[4-(S)-Carboxy-4-(19-carboxynonadecanoylamino)butyrylamino]ethoxy}ethoxy)acetyl]-His-His-[Arg1,Arg17]-pramlintide] ({C20 diacid-γGlu-AEEA}-HHRCNTATCATQRLANFLRHSSNNFGPILPPTNVGSNTY-NH2; disulfide 4-9), the EC50 was 0.3 nM.

Take `CC[C@H](C)[C@H](NC(=O)[C@@H]1CCCN1C(=O)CNC(=O)[C@H](Cc1ccccc1)NC(=O)[C@H](CC(N)=O)NC(=O)[C@H](CC(N)=O)NC(=O)[C@H](CO)NC(=O)[C@H](CO)NC(=O)[C@H](Cc1c[nH]cn1)NC(=O)[C@H](CCCNC(=N)N)NC(=O)[C@H](CC(C)C)NC(=O)[C@H](Cc1ccccc1)NC(=O)[C@H](CC(N)=O)NC(=O)[C@H](C)NC(=O)[C@H](CC(C)C)NC(=O)[C@H](CCCNC(=N)N)NC(=O)[C@H](CCC(N)=O)NC(=O)[C@@H](NC(=O)[C@H](C)NC(=O)[C@@H]1CSSC[C@H](NC(=O)[C@H](CCCNC(=N)N)NC(=O)[C@H](Cc2c[nH]cn2)NC(=O)[C@H](Cc2c[nH]cn2)NC(=O)[C@H](CCC(=O)O)NC(=O)CC[C@H](NC(=O)CCCCCCCCCCCCCCCCCCC(=O)O)C(=O)O)C(=O)N[C@@H](CC(N)=O)C(=O)N[C@@H]([C@@H](C)O)C(=O)N[C@@H](C)C(=O)N[C@@H]([C@@H](C)O)C(=O)N1)[C@@H](C)O)C(=O)N[C@@H](CC(C)C)C(=O)N1CCC[C@H]1C(=O)N1CCC[C@H]1C(=O)N[C@H](C(=O)N[C@@H](CC(N)=O)C(=O)N[C@H](C(=O)NCC(=O)N[C@@H](CO)C(=O)N[C@@H](CC(N)=O)C(=O)N[C@H](C(=O)N[C@@H](Cc1ccc(O)cc1)C(N)=O)[C@@H](C)O)C(C)C)[C@@H](C)O` [Example 58, N-alpha-[(S)-4-Carboxy-4-(19-carboxynonadecanoylamino)butyryl]-Glu-His-His-[Arg1,Arg17]-pramlintide] ({C20 diacid-γGlu}-EHHRCNTATCATQRLANFLRHSSNNFGPILPPTNVGSNTY-NH2; disulfide 5-10): the EC50 was found to be 0.2 nM.

For `CC[C@H](C)[C@H](NC(=O)[C@@H]1CCCN1C(=O)CNC(=O)[C@H](Cc1ccccc1)NC(=O)[C@H](CC(N)=O)NC(=O)[C@H](CCC(N)=O)NC(=O)[C@H](CO)NC(=O)[C@H](CO)NC(=O)[C@H](Cc1c[nH]cn1)NC(=O)[C@H](Cc1c[nH]cn1)NC(=O)[C@H](CC(C)C)NC(=O)[C@H](Cc1ccccc1)NC(=O)[C@H](CC(N)=O)NC(=O)[C@H](C)NC(=O)[C@H](CC(C)C)NC(=O)[C@H](CCCNC(=N)N)NC(=O)[C@H](CCC(N)=O)NC(=O)[C@@H](NC(=O)[C@H](C)NC(=O)[C@@H]1CSSC[C@H](NC(=O)[C@H](CCCNC(=N)N)NC(=O)[C@H](Cc2c[nH]cn2)NC(=O)[C@H](Cc2c[nH]cn2)NC(=O)COCCOCCNC(=O)CC[C@H](NC(=O)CCCCCCCCCCCCCCCCCCC(=O)O)C(=O)O)C(=O)N[C@@H](CC(N)=O)C(=O)N[C@@H]([C@@H](C)O)C(=O)N[C@@H](C)C(=O)N[C@@H]([C@@H](C)O)C(=O)N1)[C@@H](C)O)C(=O)N[C@@H](CC(C)C)C(=O)N1CCC[C@H]1C(=O)N1CCC[C@H]1C(=O)N[C@H](C(=O)N[C@@H](CC(N)=O)C(=O)N[C@H](C(=O)NCC(=O)N[C@@H](CO)C(=O)N[C@@H](CC(N)=O)C(=O)N[C@H](C(=O)N[C@@H](Cc1ccc(O)cc1)C(N)=O)[C@@H](C)O)C(C)C)[C@@H](C)O` [Example 59, N-alpha-[2-(2-{2-[4-(S)-Carboxy-4-(19-carboxynonadecanoylamino)butyrylamino]ethoxy}ethoxy)acetyl]-His-His-[Arg1His17,Gln21]-pramlintide] ({C20 diacid-γGlu-AEEA}-HHRCNTATCATQRLANFLHHSSQNFGPILPPTNVGSNTY-NH2; disulfide 4-9), the EC50 amounted to 0.06 nM.

On to `CC[C@H](C)[C@H](NC(=O)[C@@H]1CCCN1C(=O)CNC(=O)[C@H](Cc1ccccc1)NC(=O)[C@H](CC(N)=O)NC(=O)[C@H](CC(N)=O)NC(=O)[C@H](CO)NC(=O)[C@H](CO)NC(=O)[C@H](Cc1c[nH]cn1)NC(=O)[C@H](Cc1c[nH]cn1)NC(=O)[C@H](CC(C)C)NC(=O)[C@H](Cc1ccccc1)NC(=O)[C@H](CC(N)=O)NC(=O)[C@H](C)NC(=O)[C@H](CC(C)C)NC(=O)[C@H](CCCNC(=N)N)NC(=O)[C@H](CCC(N)=O)NC(=O)[C@@H](NC(=O)[C@H](C)NC(=O)[C@@H]1CSSC[C@H](NC(=O)[C@H](Cc2c[nH]cn2)NC(=O)[C@H](Cc2c[nH]cn2)NC(=O)[C@H](Cc2c[nH]cn2)NC(=O)CC[C@H](NC(=O)CCCCCCCCCCCCCCCCC(=O)O)C(=O)O)C(=O)N[C@@H](CC(N)=O)C(=O)N[C@@H]([C@@H](C)O)C(=O)N[C@@H](C)C(=O)N[C@@H]([C@@H](C)O)C(=O)N1)[C@@H](C)O)C(=O)N[C@@H](CC(C)C)C(=O)N1CCC[C@H]1C(=O)N1CCC[C@H]1C(=O)N[C@H](C(=O)N[C@@H](CC(N)=O)C(=O)N[C@H](C(=O)NCC(=O)N[C@@H](CO)C(=O)N[C@@H](CC(N)=O)C(=O)N[C@H](C(=O)N[C@@H](Cc1ccc(O)cc1)C(N)=O)[C@@H](C)O)C(C)C)[C@@H](C)O` [Example 60, N-alpha-[(S)-4-Carboxy-4-(17-carboxyheptadecanoylamino)butyryl]-His-His-[His1,His17]-pramlintide] ({C18 diacid-γGlu}-HHHCNTATCATQRLANFLHHSSNNFGPILPPTNVGSNTY-NH2; disulfide 4-9), for which the EC50 was determined as 0.05 nM.
